Measured values from patent US20240425464A1, “Substituted Monohydrazides as Potent Antifungal Agents” (University of Kentucky Research Foundation, priority 2023, published 2024).
Converted amounts (≈) assume the structure as drawn. Where two headings read alike, the source gives them in different places.

Tests used:
Assay in all cases: MIC determination by in vitro antifungal assay
Type in all cases: cell-based, Candida auris
C. auris AR Bank #381 = system: C. auris AR Bank #381
Experimental: (§1) The antifungal agent amphotericin B (AmB) was purchased from VWR (Radnor PA, USA). AmB was dissolved in DMSO at a final concentration of 5 mg/mL and was stored at −20° C., protected from light. Candida albicans American Type Culture Collection (ATCC) 10231 (strain A), C. albicans ATCC 64124 (B), and C. albicans ATCC MYA-2876 (C) were obtained from Utah State University. C. albicans ATCC 90819 (D), C. albicans ATCC MYA-2310 (E), C. albicans ATCC MYA-1237 (F), C. albicans ATCC MYA-1003 (G), Candida glabrata ATCC 2001 (H), Candida krusei ATCC 6258 (I), Candida parapsilosis ATCC 22019 (J), Cryptococcus neoformans ATCC MYA-895 (M), Aspergillus terreus ATCC MYA-3633 (N), and Aspergillus flavus ATCC MYA-3631 (0) were obtained from the American Type Culture Collection (ATCC; Manassas, VA, USA). Aspergillus nidulans ATCC 38163 (P) was obtained from University of Kentucky. Clinically derived Aspergillus fumigatus NRRL 163 (Q), A. fumigatus NRRL 5109 (R), and A. fumigatus NRRL 6113 (S) were obtained from Northern Regional Research Laboratory (NRRL). Candida auris 384 (K), C. auris 390 (L), and fungal strains 381-400 (including 10 C. auris (AR Bank #381-390), 3 Candida duobushaemulonii (AR Bank #391, AR Bank #392, and AR Bank #394), 2 Candida haemulonii (AR Bank #393 and AR Bank #395), 1 Kodameae ohmeri (AR Bank #396), 1 C. krusei (AR Bank #397), 1 Candida lusitaniae (AR Bank #398), and 2 Saccharomyces cerevisiae strains (AR Bank #399 and AR Bank #400)) were part of a larger fungal library from the AR Bank maintained by the Centers for Disease Control and Prevention (CDC; Atlanta, GA, USA). Filamentous fungi and yeasts were cultivated at 35° C. in RPMI 1640 medium (with L-glutamine, without sodium bicarbonate, Sigma-Aldrich, St. Louis, MO) buffered to a pH of 7.0 with 0.165 M morpholinepropanesulfonic acid (MOPS) buffer (Sigma-Aldrich). For cytotoxicity assays, HepG2 and the mouse macrophage cell line J774A.1 were obtained from University of Kentucky. The human embryonic kidney cell line, HEK-293, was bought from the ATCC. Mammalian cells were grown in Dulbecco's Modified Eagle's Medium (DMEM) (from VWR) with 10% fetal bovine serum (FBS) (from VWR) and 1% Pen/Strep (from ATCC). Cell lines were cultured at 37° C. with 5% CO2 and passaged by trypsinization with 0.05% trypsin: 0.53 mM EDTA (from Sigma-Aldrich).
(§2) From the actively growing yeast culture, 100 µL were then transferred to 900 μL of RPMI 1640 medium and re-adjusted to achieve OD600 of 0.12 (˜1×10^6 CFU/mL). The cell suspension was further diluted to achieve 1:100 in RPMI 1640 medium.

C. auris AR Bank #382 = system: C. auris AR Bank #382
Experimental: as §1, §2

C. auris AR Bank #383 = system: C. auris AR Bank #383
Experimental: as §1, §2

C. auris AR Bank #385 = system: C. auris AR Bank #385
Experimental: as §1, §2

C. auris AR Bank #386 = system: C. auris AR Bank #386
Experimental: as §1, §2

C. auris AR Bank #387 = system: C. auris AR Bank #387
Experimental: as §1, §2

C. auris AR Bank #388 = system: C. auris AR Bank #388
Experimental: as §1, §2

C. auris AR Bank #389 = system: C. auris AR Bank #389
Experimental: as §1, §2

[1] = C. auris AR Bank # 381 (Table 2B)
[2] = C. auris AR Bank # 382 (Table 2B)
[3] = C. auris AR Bank # 383 (Table 2B)
[4] = C. auris AR Bank # 385 (Table 2B)
[5] = C. auris AR Bank # 386 (Table 2B)
[6] = C. auris AR Bank # 387 (Table 2B)
[7] = C. auris AR Bank # 388 (Table 2B)
[8] = C. auris AR Bank # 389 (Table 2B)
[9] = Candidozyma auris, C. auris AR Bank #381, read-out: MIC
[10] = Candidozyma auris, C. auris AR Bank #382, read-out: MIC
[11] = Candidozyma auris, C. auris AR Bank #383, read-out: MIC
[12] = Candidozyma auris, C. auris AR Bank #385, read-out: MIC
[13] = Candidozyma auris, C. auris AR Bank #386, read-out: MIC
[14] = Candidozyma auris, C. auris AR Bank #387, read-out: MIC
[15] = Candidozyma auris, C. auris AR Bank #388, read-out: MIC
[16] = Candidozyma auris, C. auris AR Bank #389, read-out: MIC
[17] = Candidozyma auris, C. auris AR Bank # 381 (Table 2B), read-out: MIC
[18] = Candidozyma auris, C. auris AR Bank # 382 (Table 2B), read-out: MIC
[19] = Candidozyma auris, C. auris AR Bank # 383 (Table 2B), read-out: MIC
[20] = Candidozyma auris, C. auris AR Bank # 385 (Table 2B), read-out: MIC
[21] = Candidozyma auris, C. auris AR Bank # 386 (Table 2B), read-out: MIC
[22] = Candidozyma auris, C. auris AR Bank # 387 (Table 2B), read-out: MIC
[23] = Candidozyma auris, C. auris AR Bank # 388 (Table 2B), read-out: MIC
[24] = Candidozyma auris, C. auris AR Bank # 389 (Table 2B), read-out: MIC

In the case of `O=C(NNc1ccc(Cl)cc1)c1cccc(F)n1` [Compound 5e], the MIC (C. auris AR Bank #381; [1]) is reported as 7.8 μg/mL^−1, the MIC (C. auris AR Bank #382; [2]) is reported as 7.8 μg/mL^−1 and the MIC (C. auris AR Bank #383; [3]) is reported as 3.9 μg/mL^−1. For the same molecule, the MIC (C. auris AR Bank #385; [4]) was 3.9 μg/mL^−1, the MIC (C. auris AR Bank #386; [5]) was 7.8 μg/mL^−1 and the MIC (C. auris AR Bank #387; [6]) was 7.8 μg/mL^−1. For the same molecule, the MIC (C. auris AR Bank #388; [7]) was 7.8 μg/mL^−1 and the MIC (C. auris AR Bank #389; [8]) was 7.8 μg/mL^−1.
Molecule `O=C(NNc1cc(Cl)cc(Cl)c1)c1ccccn1` [Compound 2j] has an MIC (C. auris AR Bank #381; [9]) of 3.9 µg/mL (≈ 13.8 µM), an MIC (C. auris AR Bank #382; [10]) of 0.98 µg/mL (≈ 3.47 µM) and an MIC (C. auris AR Bank #383; [11]) of 1.95 µg/mL (≈ 6.91 µM). It also gave an MIC (C. auris AR Bank #385; [12]) of 1.95 µg/mL (≈ 6.91 µM), an MIC (C. auris AR Bank #386; [13]) of 1.98 µg/mL (≈ 7.02 µM) and an MIC (C. auris AR Bank #387; [14]) of 0.98 µg/mL (≈ 3.47 µM). It also gave an MIC (C. auris AR Bank #388; [15]) of 3.9 µg/mL (≈ 13.8 µM) and an MIC (C. auris AR Bank #389; [16]) of 1.95 µg/mL (≈ 6.91 µM).
`O=C(NNc1ccc(Cl)cc1)c1ncc(F)cc1F` [Compound 7e] gave an MIC (C. auris AR Bank #381; [1]) of 7.8 μg/mL^−1, an MIC (C. auris AR Bank #382; [2]) of 15.6 μg/mL^−1 and an MIC (C. auris AR Bank #383; [3]) of 3.9 μg/mL^−1. The MIC (C. auris AR Bank #385; [4]) was 7.8 μg/mL^−1, the MIC (C. auris AR Bank #386; [5]) was 15.6 μg/mL^−1 and the MIC (C. auris AR Bank #387; [6]) was 15.6 μg/mL^−1. For the same molecule, the MIC (C. auris AR Bank #388; [7]) was 7.8 μg/mL^−1 and the MIC (C. auris AR Bank #389; [8]) was 7.8 μg/mL^−1.
Molecule `O=C(NNc1ccc(F)cc1F)c1ccc(F)cn1` [Compound 3g] has an MIC (C. auris AR Bank #381; [17]) of 1.95 µg/mL (≈ 7.3 µM), an MIC (C. auris AR Bank #382; [18]) of 1.95 µg/mL (≈ 7.3 µM) and an MIC (C. auris AR Bank #383; [19]) of 1.95 µg/mL (≈ 7.3 µM). The MIC (C. auris AR Bank #385; [20]) was 0.49 µg/mL (≈ 1.83 µM), the MIC (C. auris AR Bank #386; [21]) was 1.95 µg/mL (≈ 7.3 µM) and the MIC (C. auris AR Bank #387; [22]) was 0.98 µg/mL (≈ 3.67 µM). The MIC (C. auris AR Bank #388; [23]) was 1.95 µg/mL (≈ 7.3 µM) and the MIC (C. auris AR Bank #389; [24]) was 1.95 µg/mL (≈ 7.3 µM).
Work on `O=C(NNc1ccc(F)cc1)c1nc(F)ccc1F` [Compound 8d] yielded an MIC (C. auris AR Bank #381; [17]) of 0.98 µg/mL (≈ 3.67 µM), an MIC (C. auris AR Bank #382; [18]) of 0.98 µg/mL (≈ 3.67 µM) and an MIC (C. auris AR Bank #383; [19]) of 0.98 µg/mL (≈ 3.67 µM). For the same molecule, the MIC (C. auris AR Bank #385; [20]) was 0.24 µg/mL (≈ 0.898 µM), the MIC (C. auris AR Bank #386; [21]) was 0.98 µg/mL (≈ 3.67 µM) and the MIC (C. auris AR Bank #387; [22]) was 0.49 µg/mL (≈ 1.83 µM). It also gave an MIC (C. auris AR Bank #388; [23]) of 0.49 µg/mL (≈ 1.83 µM) and an MIC (C. auris AR Bank #389; [24]) of 0.98 µg/mL (≈ 3.67 µM).
Work on `COc1ccc(NNC(=O)c2cnccn2)cc1` [Compound 9f] yielded an MIC (C. auris AR Bank #381; [9]) of 1.95 µg/mL (≈ 7.98 µM), an MIC (C. auris AR Bank #382; [10]) of 0.98 µg/mL (≈ 4.01 µM) and an MIC (C. auris AR Bank #383; [11]) of 0.98 µg/mL (≈ 4.01 µM). The MIC (C. auris AR Bank #385; [12]) was 0.98 µg/mL (≈ 4.01 µM), the MIC (C. auris AR Bank #386; [13]) was 0.49 µg/mL (≈ 2.01 µM) and the MIC (C. auris AR Bank #387; [14]) was 1.95 µg/mL (≈ 7.98 µM). The MIC (C. auris AR Bank #388; [15]) was 0.98 µg/mL (≈ 4.01 µM) and the MIC (C. auris AR Bank #389; [16]) was 0.98 µg/mL (≈ 4.01 µM).
Work on `O=C(NNc1cccc(Cl)c1)c1cnccn1` [Compound 9b] yielded an MIC (C. auris AR Bank #381; [9]) of 0.49 µg/mL (≈ 1.97 µM), an MIC (C. auris AR Bank #382; [10]) of 0.12 µg/mL (≈ 0.483 µM) and an MIC (C. auris AR Bank #383; [11]) of 0.24 µg/mL (≈ 0.965 µM). For the same molecule, the MIC (C. auris AR Bank #385; [12]) was 0.24 µg/mL (≈ 0.965 µM), the MIC (C. auris AR Bank #386; [13]) was ≤ 0.06 µg/mL and the MIC (C. auris AR Bank #387; [14]) was 0.24 µg/mL (≈ 0.965 µM). It also gave an MIC (C. auris AR Bank #388; [15]) of 0.24 µg/mL (≈ 0.965 µM) and an MIC (C. auris AR Bank #389; [16]) of 0.24 µg/mL (≈ 0.965 µM).
`O=C(NNc1ccc(F)cc1F)c1nc(F)ccc1F` [Compound 8g] was tested, and the MIC (C. auris AR Bank #381; [17]) was 1.95 µg/mL (≈ 6.84 µM), the MIC (C. auris AR Bank #382; [18]) was 1.95 µg/mL (≈ 6.84 µM) and the MIC (C. auris AR Bank #383; [19]) was 1.95 µg/mL (≈ 6.84 µM). For the same molecule, the MIC (C. auris AR Bank #385; [20]) was 0.49 µg/mL (≈ 1.72 µM), the MIC (C. auris AR Bank #386; [21]) was 1.95 µg/mL (≈ 6.84 µM) and the MIC (C. auris AR Bank #387; [22]) was 0.98 µg/mL (≈ 3.44 µM). For the same molecule, the MIC (C. auris AR Bank #388; [23]) was 0.98 µg/mL (≈ 3.44 µM) and the MIC (C. auris AR Bank #389; [24]) was 1.95 µg/mL (≈ 6.84 µM).
